In patent US11643417B2, “Tetrahydrobenzofurodiazepinone compound and pharmaceutical use thereof” (priority 2020, dated 2023):
pKi: −log10 of the molar value. Where two headings read alike, the source gives them in different places.

Biological target: human Pim-1 (Homo sapiens (Human), UniProt P11309)
Assay: biochemical
Type: biochemical
Experimental: The human Pim-1 inhibitory activity of the test compounds was evaluated as follows.
(1) Purification of Human Pim-1
DNA fragment in which a His-Tag sequence and a translation termination sequence are added to the 3′-end of human Pim-1 translation sequence was amplified by PCR (Polymerase Chain Reaction), using human Pim-1 gene-inserted plasmid DNA (Kazusa DNA Laboratory, model number FXC11400) as a template. The amplified DNA fragment was fused with pGEx-6P-1 (GE Healthcare Japan, model number 27-4597-1) digested with BamHI and EcoRI using In-Fusion HD Cloning Kit (Takara Bio, model number 639649). […] The base sequence of Pim-1 cloned into vector was determined by Dye Terminator method using BigDye Terminator v3.1 Cycle Sequencing Kit (Applied Biosystems, model number 4337456). […] Escherichia coli BL21 (DE3) (Merck KGaA, model number 69449-4) transformed with human Pim-1-expressed plasmid DNA was cultured in 2×YT medium (Becton Dickinson, model number 2404020) at 30° C., until the optical concentration at 620 nm (OD620) reached 0.6, and then cultured overnight at 20° C. in the presence of 0.5 mmol/L isopropyl b-D-1-thiogalactopyranoside. After the completion of so the culture, the cells were collected and suspended in Homogenate Buffer (50 mmol/L Tris-HCl (pH 7.5), 500 mmol/L NaCl, 1% Tween20, complete, EDTA-free (Roche, model number 1873580)), and the suspended cells were lysed by passing through a microfluidizer M-110H (Mizuho Kogyo Co., Ltd.). The lysate was centrifuged at 10,100×g for 10 minutes, 4° C., and the supernatant was filtered through MILLEX-HV Filter (0.45 μm) (Millipore, SLHV033RS) to remove the cell residues. The filtrate was loaded onto complete His-Tag Purification Resin (Roche Diagnostics, model number 05 893 682 0.01). The column was washed with Equilibration Buffer-1 (50 mmol/L Tris-HCl (pH 7.5), 500 mmol/L NaCl, 1% Tween 20) containing 5 mmol/L Imidazole, followed by Equilibration Buffer-1 containing 50 mmol/L Imidazole, the human Pim-1 to which GST-Tag derived from pGEx-6P-1 was eluted with Equilibration Buffer-1 containing 150 mmol/L imidazole. […] The protease reaction was carried out by stirring overnight at 4° C., and the human Pim-1 in which the GST-Tag sequence was cleaved was eluted. The eluate was loaded onto a gel filtration column (Superdex-200 […] (GE Healthcare, model number 17-5175-01)) equilibrated with Equilibration Buffer-3 (50 mmol/L Tris-HCl (pH 7.5), 500 mmol/L NaCl, 0.05% Tween20, 0.5 mmol/L EDTA, 2 mmol/L DTT, 10% Glycerol), and eluted. The eluate was used as a human Pim-1 purified fraction.
The protein concentration of the human Pim-1 purified fraction was measured with Pierce 660 nm Protein Assay Reagent (Thermo Fisher Scientific, model number 22660). The purified fraction was rapidly frozen in liquid nitrogen, and then stored at −80° C. The His-Tag-added human Pim-1 was detected by Western blotting using a mouse anti-His monoclonal antibody (WAKO, model number 011-23091).
(2) Evaluation of Human Pim-1 Inhibitory Activity
The calculation of the Pim-1 inhibitory activity of the compound was performed using the following solution according to the protocol attached to ADP-Glo Kinase Assay (cat. V9102, Promega). The purified enzyme of human Pim-1 described above was used.
(i) Preparation of Solution
The kinase buffer solution (50 mmol/L HEPES (pH 7.5), 5 mmol/L MgCl2, 1 mmol/L DTT, 0.05% BSA) was prepared by dissolving HEPES (Jena Bioscience), MgCl2 (Sigma-Aldrich), DTT (Sigma-Aldrich) and BSA (Sigma-Aldrich) in purified water.
The ATP solution (288 μmol/L) was prepared by dissolving 100 mmol/L ATP (Promega) in the kinase buffer solution.

[1] = Ki converted from IC50; purified human Pim-1, Pim2tide substrate, ADP-Glo; read-out: hPim1 Ki
[2] = hPim1 Ki (nM), Ki converted from IC50; purified human Pim-1, Pim2tide substrate, ADP-Glo

human Pim-1, sequence (P11309 whole entry): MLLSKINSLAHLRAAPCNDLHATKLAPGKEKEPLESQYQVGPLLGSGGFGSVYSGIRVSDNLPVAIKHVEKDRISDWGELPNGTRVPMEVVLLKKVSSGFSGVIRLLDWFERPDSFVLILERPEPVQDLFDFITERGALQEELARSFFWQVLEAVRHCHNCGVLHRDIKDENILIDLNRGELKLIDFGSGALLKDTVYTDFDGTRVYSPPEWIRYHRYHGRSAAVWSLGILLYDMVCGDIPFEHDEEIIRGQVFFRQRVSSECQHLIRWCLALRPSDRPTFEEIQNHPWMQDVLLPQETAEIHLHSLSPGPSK

| SMILES | pKi [1] | other results |
| --- | --- | --- |
| O=C1NCCN(CCC2CCC(O)(CO)CC2)c2c1oc1ccc(C(F)(F)F)cc21 (centres unmarked) [Example 89] | – | pKi (read-out: hPim1 Ki; Ki converted from IC50; purified human Pim-1, Pim2tide substrate, ADP-Glo): 10.48 |
| O=C1NCCN(CC[C@H]2CC[C@](O)(CO)CC2)c2c1oc1ccc(C(F)(F)F)cc21 [Example 90, 1-(2-((1s,4s)-4-hydroxy-4-(hydroxymethyl)cyclohexyl)ethyl)-9-(trifluoromethyl)-1,2,3,4-tetrahydro-5H-benzofuro[3,2-e][1,4]diazepin-5-one] | 11.04 | – |
| [2H]C1(O)CCC(CCN2CCNC(=O)c3oc4ccc(C(F)(F)F)cc4c32)CC1 (centres unmarked) [Example 92] | – | Ki [2]: 0.707 nM |
| CC1(C(=O)O)CCC(CCN2CCNC(=O)c3oc4ccc(C(F)(F)F)cc4c32)CC1 (centres unmarked) [Example 93] | 8.29 | – |
| CC1(CO)CCC(CCN2CCNC(=O)c3oc4ccc(C(F)(F)F)cc4c32)CC1 (centres unmarked) [Example 94] | 9.89 | – |
| O=C1NCCN(CC(F)(F)[C@H]2CO[C@H](CO)CO2)c2c1oc1ccc(C(F)(F)F)cc21 [Example 95, 1-(2,2-difluoro-2-((2R,5R)-5-(hydroxymethyl)-1,4-dioxan-2-yl)ethyl)-9-(trifluoromethyl)-1,2,3,4-tetrahydro-5H-benzofuro[3,2-e][1,4]diazepin-5-one] | 10.35 | – |
| O=C1NCCN(CC(F)(F)[C@H]2CO[C@@H](CO)CO2)c2c1oc1ccc(C(F)(F)F)cc21 [Example 96] | 10.55 | – |
| O=C1NCCN(CCC2CCC(CO)CC2)c2c1oc1ccc(C(F)(F)F)cc21 (centres unmarked) [Example 97] | 9.97 | – |
| CC(C)(O)C1CCC(CCN2CCNC(=O)c3oc4ccc(C(F)(F)F)cc4c32)CC1 (centres unmarked) [Example 98] | 8.97 | – |
| O=C1NCCN(CCC2CCC(C3(O)CC3)CC2)c2c1oc1ccc(C(F)(F)F)cc21 (centres unmarked) [Example 99] | – | Ki [2]: 0.0764 nM |
| CNC(=O)C1CCC(CCN2CCNC(=O)c3oc4ccc(C(F)(F)F)cc4c32)CC1 (centres unmarked) [Example 100] | 9.00 | – |
| CN(C)C(=O)C1CCC(CCN2CCNC(=O)c3oc4ccc(C(F)(F)F)cc4c32)CC1 (centres unmarked) [Example 101] | 9.11 | – |
| O=C1NCCN(CCC2CCC(O)(C(=O)O)CC2)c2c1oc1ccc(C(F)(F)F)cc21 (centres unmarked) [Example 102] | 8.26 | – |
| NC(=O)C1CCC(CCN2CCNC(=O)c3oc4ccc(C(F)(F)F)cc4c32)CC1 (centres unmarked) [Example 104] | 9.09 | – |
| O=C1NCCN(CCC2CCC(c3ncn[nH]3)CC2)c2c1oc1ccc(C(F)(F)F)cc21 (centres unmarked) [Example 105] | 9.22 | – |
| O=C1NCCN(CC(F)(F)[C@H]2CC[C@H](O)CC2)c2c1oc1ccc(C(F)(F)F)cc21 [Example 106, 1-(2,2-difluoro-2-((1r,4r)-4-hydroxycyclohexyl)ethyl)-9-(trifluoromethyl)-1,2,3,4-tetrahydro-5H-benzofuro[3,2-e][1,4]diazepin-5-one] | 10.39 | – |
| O=C1NCCN(CC(F)(F)C2CCC(O)CC2)c2c1oc1ccc(C(F)(F)F)cc21 (centres unmarked) [Example 107, 1-(2,2-difluoro-2-(4-hydroxycyclohexyl)ethyl)-9-(trifluoromethyl)-1,2,3,4-tetrahydro-5H-benzofuro[3,2-e] [1,4]diazepin-5-one] | 10.06 | – |
| O=C1NCCN(CC[C@H]2CC[C@](O)(CCO)CC2)c2c1oc1ccc(C(F)(F)F)cc21 [Example 108] | 9.53 | – |
| O=C1NCCN(CC[C@H]2CC[C@@](O)(CCO)CC2)c2c1oc1ccc(C(F)(F)F)cc21 [Example 109] | 9.71 | – |
| O=C1NCCN(CCC2CCC(C3(O)CC3)CC2)c2c1oc1ccc(C(F)(F)F)cc21 (centres unmarked) [Example 110] | 9.88 | – |
| O=C1NCCN(CCC2CCC(O)(C3(O)CC3)CC2)c2c1oc1ccc(C(F)(F)F)cc21 (centres unmarked) [Example 111] | 10.96 | – |
| COCC1(O)CCC(CCN2CCNC(=O)c3oc4ccc(C(F)(F)F)cc4c32)CC1 (centres unmarked) [Example 112] | 8.99 | – |
| O=C1NCCN(CCC23CC(CO)(C2)C3)c2c1oc1ccc(C(F)(F)F)cc21 [Example 113] | 9.14 | – |
| O=C1NC2(CC2)CN(CCC2CCC(O)(CO)CC2)c2c1oc1ccc(C(F)(F)F)cc21 (centres unmarked) [Example 116] | – | Ki [2]: 0.0092 nM |
| O=C1NCCN(CCC2CC(CO)C2)c2c1oc1ccc(C(F)(F)F)cc21 (centres unmarked) [Example 117] | 9.10 | – |

| SMILES | pKi [1] | other results |
| --- | --- | --- |
| O=C1NCCN(CC(F)(F)C2CCC(O)(CO)CC2)c2c1oc1ccc(C(F)(F)F)cc21 (centres unmarked) [Example 120] | 11.22 | – |
| N#CCC1(O)CCC(CCN2CCNC(=O)c3oc4ccc(C(F)(F)F)cc4c32)CC1 (centres unmarked) [Example 121] | 9.15 | – |
| CS(=O)(=O)CC1(O)CCC(CCN2CCNC(=O)c3oc4ccc(C(F)(F)F)cc4c32)CC1 (centres unmarked) [Example 122] | 9.27 | – |
| CS(=O)(=O)C1CCC(CCN2CCNC(=O)c3oc4ccc(C(F)(F)F)cc4c32)CC1 (centres unmarked) [Example 123] | 9.11 | – |
| O=C1NC2(CC2)CN(CCC2CCC(O)CC2)c2c1oc1ccc(C(F)(F)F)cc21 (centres unmarked) [Example 125] | – | Ki [2]: 0.0592 nM |
| O=C1NC2(CC2)CN(CCC2CCC(O)CC2)c2c1oc1ccc(C(F)(F)F)cc21 (centres unmarked) [Example 126] | 9.33 | – |
| O=C1NCCN(CC(F)(F)C2CCC(CO)CC2)c2c1oc1ccc(C(F)(F)F)cc21 (centres unmarked) [Example 138] | 10.82 | – |
| O=C1NCCN(CCC2CCC(O)(CF)CC2)c2c1oc1ccc(C(F)(F)F)cc21 (centres unmarked) [Example 144] | 9.10 | – |
| O=C1NCCN(CCC2CCC(CO)(CO)CC2)c2c1oc1ccc(C(F)(F)F)cc21 [Example 146] | 10.64 | – |
| O=C1NC2(CC2)CN(CC(F)(F)[C@H]2CC[C@H](O)CC2)c2c1oc1ccc(C(F)(F)F)cc21 [Example 149] | 10.47 | – |
| O=C1NCCN(CCC2CCC(F)(CO)CC2)c2c1oc1ccc(C(F)(F)F)cc21 (centres unmarked) [Example 150] | 9.89 | – |
| O=C1NCCN(CC(F)(F)C2CC(O)C2)c2c1oc1ccc(C(F)(F)F)cc21 (centres unmarked) [Example 151] | 9.02 | – |
| O=C1NC2(CC2)CN(CC[C@@H]2CO[C@@H](CO)CO2)c2c1oc1ccc(C(F)(F)F)cc21 [Example 152] | 10.03 | – |
| O=C1NC2(CC2)CN(CC[C@@H]2CO[C@H](CO)CO2)c2c1oc1ccc(C(F)(F)F)cc21 [Example 153] | 9.52 | – |
| O=C1NC2(CC2)CN(CC[C@H]2CO[C@@H](CO)CO2)c2c1oc1ccc(C(F)(F)F)cc21 [Example 154] | 9.52 | – |
| O=C1NC2(CC2)CN(CC[C@H]2CO[C@H](CO)CO2)c2c1oc1ccc(C(F)(F)F)cc21 [Example 155] | 9.66 | – |
| O=C1NC2(CC2)CN(CC[C@@H]2CO[C@H](CF)CO2)c2c1oc1ccc(C(F)(F)F)cc21 [Example 156] | 10.99 | – |
| O=C1NC2(CC2)CN(CC[C@H]2CO[C@@H](CF)CO2)c2c1oc1ccc(C(F)(F)F)cc21 [Example 157] | 9.63 | – |
| CS(=O)(=O)C[C@@H]1CO[C@@H](CCN2CC3(CC3)NC(=O)c3oc4ccc(C(F)(F)F)cc4c32)CO1 [Example 159] | 9.79 | – |
| O=C1NC2(CC2)CN(CC(F)(F)C2CCS(=O)(=O)CC2)c2c1oc1ccc(C(F)(F)F)cc21 [Example 160] | 10.01 | – |
| CS(=O)(=O)C[C@H]1CO[C@H](CCN2CC3(CC3)NC(=O)c3oc4ccc(C(F)(F)F)cc4c32)CO1 [Example 161] | 9.73 | – |
| N#CC1(CO)CCC(CCN2CCNC(=O)c3oc4ccc(C(F)(F)F)cc4c32)CC1 (centres unmarked) [Example 163] | 10.35 | – |
| O=C1NC2(CC2)CN(CC(F)(F)[C@H]2CO[C@H](CO)CO2)c2c1oc1ccc(C(F)(F)F)cc21 [Example 164] | 10.71 | – |
| O=C1NCCN(CC(F)(F)[C@H]2CC[C@H](O)CC2)c2c1oc1ccc(C(F)(F)F)cc21 [Example 165] | 9.98 | – |
| O=C1CCC(C(F)(F)CN2CCNC(=O)c3oc4ccc(C(F)(F)F)cc4c32)CC1 [Example 166] | 9.72 | – |
